In experiment [1] the target is T1, Gonadotropin-releasing hormone receptor (Homo sapiens, UniProt P30968).
T1 sequence (P30968 whole entry): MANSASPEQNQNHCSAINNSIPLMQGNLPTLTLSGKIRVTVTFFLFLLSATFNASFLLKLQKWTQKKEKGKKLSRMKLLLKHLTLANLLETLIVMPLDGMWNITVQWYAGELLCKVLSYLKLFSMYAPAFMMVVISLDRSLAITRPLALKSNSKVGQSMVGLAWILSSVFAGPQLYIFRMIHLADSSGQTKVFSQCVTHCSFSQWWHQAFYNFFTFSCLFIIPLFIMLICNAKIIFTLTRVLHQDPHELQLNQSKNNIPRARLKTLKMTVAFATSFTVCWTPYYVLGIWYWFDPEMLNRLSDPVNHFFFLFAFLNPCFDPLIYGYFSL
Briefly: In vitro inhibitory activity against […] CHO cells stably expressing human gonadotropin-releasing hormone receptor. In kind it is cell-based.

The target of experiment [2] is T2, Gonadotropin-releasing hormone receptor (Rattus norvegicus, UniProt P30969).
T2 sequence (P30969 whole entry): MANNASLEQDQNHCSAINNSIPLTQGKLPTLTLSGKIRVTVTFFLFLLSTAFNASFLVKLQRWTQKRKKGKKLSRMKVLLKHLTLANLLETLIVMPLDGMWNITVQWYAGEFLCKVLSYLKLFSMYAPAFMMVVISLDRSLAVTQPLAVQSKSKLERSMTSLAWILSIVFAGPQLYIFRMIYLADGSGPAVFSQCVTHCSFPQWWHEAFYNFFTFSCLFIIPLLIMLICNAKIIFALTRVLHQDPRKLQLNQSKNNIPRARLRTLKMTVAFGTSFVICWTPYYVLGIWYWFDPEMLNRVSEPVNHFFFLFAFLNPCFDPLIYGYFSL
Briefly: In vitro inhibition of GnRH stimulated release of luteinizing hormone from the rat primary pituitary cells. It counts as functional, cell-based, Pituitary gland cell.

In experiment [3] the target is T1, Gonadotropin-releasing hormone receptor. Briefly: In vitro inhibition of GnRH-stimulated phosphatidyl inositol hydrolysis in CHO cells stably expressing gonadotropin-releasing hormone receptor. In kind it is functional, cell-based.

As a reminder, the IC50 is the point on the concentration scale where inhibition reaches its midpoint. Low values mean inhibition by little substance, high ones a need for much substance. On to `Cc1cc(C)cc(-c2c(O)nc3cc(Cl)c(C(=O)Nc4cnccn4)cc3c2OCCC2CCCCN2)c1` (stereo unspecified), for which the IC50 was found to be 0.007 µM in experiment [1], 2.2 µM in experiment [2] and 0.016 µM in experiment [3].
For `Cc1cc(C)cc(-c2c(O)nc3cc(Cl)c(C(=O)Nc4cc(Cl)ncn4)cc3c2OCCC2CCCCN2)c1` (stereo unspecified), in that order: 0.0014 µM, 0.0792 µM and 0.0145 µM.
Regarding `Cc1cc(C)cc(-c2c(O)nc3cc(Cl)c(C(=O)Nc4ccnc(C)n4)cc3c2OCCC2CCCCN2)c1` (stereo unspecified), the results for the IC50 in experiment [1], in experiment [2] and in experiment [3] were 0.0018 µM, 0.0872 µM and 0.0333 µM, respectively.
In experiment [2], `CCC(C)N(C(=O)c1cc2c(OCCC3CCCCN3)c(-c3cc(C)cc(C)c3)c(O)nc2cc1Cl)C(C)CC` (stereo unspecified) gave a half-maximal inhibitory concentration (IC50) greater than 1.28 µM.
In the case of `Cc1cc(C)cc(-c2c(O)nc3cc(Cl)c(C(=O)Nc4ccccn4)cc3c2OCCC2CCCCN2)c1` (stereo unspecified), the half-inhibitory concentration (IC50) in experiment [1] amounted to 0.0036 µM; in experiment [2] it was 1.27 µM; in experiment [3], 0.019 µM.
As to `Cc1cc(C)cc(-c2c(O)nc3cc(Cl)c(C(=O)Nc4ccnc(C5CC5)n4)cc3c2OCCC2CCCCN2)c1` (stereo unspecified), the results for the IC50 in experiment [1] and in experiment [3] were 0.015 µM and 0.25 µM, respectively.
Turning to `COc1nccc(NC(=O)c2cc3c(OCCC4CCCCN4)c(-c4cc(C)cc(C)c4)c(O)nc3cc2Cl)n1` (stereo unspecified), the IC50 in experiment [1] was 0.009 µM; in experiment [3] it was 0.133 µM.
As to `Cc1cc(C)cc(-c2c(O)nc3cc(Cl)c(C(=O)Nc4cc(C)on4)cc3c2OCCC2CCCCN2)c1` (stereo unspecified), the IC50 is 0.0023 µM in experiment [1], 0.513 µM in experiment [2] and 0.0775 µM in experiment [3].
Regarding `Cc1cc(C)cc(-c2c(O)nc3cc(Cl)c(C(=O)Nc4nncs4)cc3c2OCCC2CCCCN2)c1` (stereo unspecified), the IC50 in experiment [1] was determined as 0.032 µM; in experiment [3] it was 0.022 µM.
Take `Cc1cc(C)cc(-c2c(O)nc3cc(Cl)c(C(=O)Nc4nc[nH]n4)cc3c2OCCC2CCCCN2)c1` (stereo unspecified): the figures for the IC50 in experiment [1], in experiment [2] and in experiment [3] were 0.32 µM, greater than 1.28 µM and 0.775 µM, respectively.
Taken in the same sequence, the figures for `Cc1cc(C)cc(-c2c(O)nc3cc(Cl)c(C(=O)NCc4ccc5c(c4)OCO5)cc3c2OCCC2CCCCN2)c1` (stereo unspecified) were 0.11 µM, greater than 1.28 µM and 0.591 µM.
For `Cc1cc(C)cc(-c2c(O)nc3cc(Cl)c(C(=O)Nc4cnsn4)cc3c2OCC[C@@H]2CCCCN2)c1`, in that order: 0.0008 µM, 0.0239 µM and 0.0059 µM.
In the case of `Cc1cc(C)cc(-c2c(O)nc3cc(Cl)c(C(=O)Nc4ccncn4)cc3c2OCC[C@@H]2CCCCN2)c1`, the IC50 in experiment [1] came out at 0.0009 µM; in experiment [2] it was 0.0965 µM; in experiment [3] it was 0.005 µM.
Take `Cc1cc(C)cc(-c2c(O)nc3cc(Cl)c(C(=O)Nc4nnc(C)s4)cc3c2OCCC2CCCCN2)c1` (stereo unspecified): the IC50 in experiment [1] was 0.028 µM; in experiment [2] it was greater than 1.28 µM.
In the case of `Cc1cc(C)cc(-c2c(O)nc3cc(Cl)c(C(=O)Nc4cc(C)nc(C)n4)cc3c2OCCC2CCCCN2)c1` (stereo unspecified), the half-inhibitory concentration (IC50) in experiment [1] worked out at 0.04 µM; in experiment [3] it was 0.486 µM.
On to `Cc1cc(C)cc(-c2c(O)nc3cc(Cl)c(C(=O)Nc4cccnc4)cc3c2OCCC2CCCCN2)c1` (stereo unspecified), for which the figures for the half-maximal inhibitory concentration (IC50) in experiment [1], in experiment [2] and in experiment [3] were 0.032 µM, greater than 1.28 µM and 0.13 µM, respectively.
For `Cc1cc(C)cc(-c2c(O)nc3cc(Cl)c(C(=O)Nc4cc(C)ncn4)cc3c2OCCC2CCCCN2)c1` (stereo unspecified), in that order: 0.0028 µM, 0.167 µM and 0.044 µM.
`CCn1nccc1NC(=O)c1cc2c(OCCC3CCCCN3)c(-c3cc(C)cc(C)c3)c(O)nc2cc1Cl` (stereo unspecified): the IC50 in experiment [1] came out at 0.86 µM; in experiment [3] it was 0.977 µM.
For the compound `Cc1cc(C)cc(-c2c(O)nc3cc(Cl)c(C(=O)Nc4cc(C)ns4)cc3c2OCCC2CCCCN2)c1` (stereo unspecified), the IC50 in experiment [1] is 0.0029 µM; in experiment [2], 0.521 µM; in experiment [3], 0.0215 µM.
`Cc1cc(C)cc(-c2c(O)nc3cc(Cl)c(C(=O)Nc4ccncn4)cc3c2OCCC2CCCCN2)c1` (stereo unspecified): the IC50 in experiment [1] turned out to be 0.0032 µM; in experiment [2] it was 0.24 µM; in experiment [3] it was 0.0083 µM.
For `Cc1cc(C)cc(-c2c(O)nc3cc(Cl)c(C(=O)Nc4ncccn4)cc3c2OCCC2CCCCN2)c1` (stereo unspecified), in that order: 0.29 µM, greater than 1.28 µM and greater than 3.2 µM.
With `Cc1cc(C)cc(-c2c(O)nc3cc(Cl)c(C(=O)Nc4cnsn4)cc3c2OCCC2CCCCN2)c1` (stereo unspecified), the IC50 in experiment [1] was 0.002 µM; in experiment [2], 0.292 µM; in experiment [3], 0.0064 µM.
Consider `Cc1cc(C)cc(-c2c(O)nc3cc(Cl)c(C(=O)Nc4ccc(N(C)C)cc4)cc3c2OCCC2CCCCN2)c1` (stereo unspecified), for which the figures for the IC50 in experiment [1] and in experiment [3] were 0.0109 µM and 0.36 µM, respectively.
In experiment [2], `CCN(CC)C(=O)c1cc2c(OCCC3CCCCN3)c(-c3cc(C)cc(C)c3)c(O)nc2cc1Cl` (stereo unspecified) displayed an IC50 greater than 1.28 µM.
Regarding `Cc1cc(C)cc(-c2c(O)nc3cc(Cl)c(C(=O)Nc4ccncc4)cc3c2OCCC2CCCCN2)c1` (stereo unspecified), the half-maximal inhibitory concentration (IC50) is 0.0038 µM in experiment [1], 1.09 µM in experiment [2] and 0.0106 µM in experiment [3].
In the case of `Cc1cc(C)cc(-c2c(O)nc3cc(Cl)c(C(=O)Nc4cc(C)no4)cc3c2OCCC2CCCCN2)c1` (stereo unspecified), the figures for the IC50 in experiment [1] and in experiment [2] were 0.023 µM and greater than 1.28 µM, respectively.
